According to ChEMBL document CHEMBL2424638, “6-Bromo-8-(4-[(3)H]methoxybenzamido)-4-oxo-4H-chromene-2-carboxylic Acid: a powerful tool for studying orphan G protein-coupled receptor GPR35” (J Med Chem, 2013):

Legend:
[1] = target: T1, G-protein coupled receptor 35 (Homo sapiens, UniProt Q9HC97); test: biochemical; type: cell-based, CHO
Description: Displacement of [3H]PSB-13253 from human recombinant GPR35 exprssed in CHO cells by liquid scintillation counting analysis

[2] = target: T1, G-protein coupled receptor 35; test: Agonist activity at C-terminal beta-galactosidase tagged human recombinant GPR35 expressed in CHO cells at 100 uM after 90 mins by beta-arrestin recruitment assay relative to zaprinast; type: cell-based
[3] = target: T1, G-protein coupled receptor 35; test: Agonist activity at C-terminal beta-galactosidase tagged human recombinant GPR35 expressed in CHO cells after 90 mins by beta-arrestin recruitment assay; type: cell-based
[4] = target: T1, G-protein coupled receptor 35; test: Agonist activity at human GPR35 expressed in CHO cells assessed as increase in intracellular Ca2+ measured over 20 secs by Aequorin assay; type: functional, cell-based
[5] = target: T1, G-protein coupled receptor 35; test: Antagonist activity at human GPR35 expressed in human HT29 cells after 1 hr by DMR assay; type: cell-based; details: ht-29
[6] = target: T1, G-protein coupled receptor 35; test: Antagonist activity at human Gal4-VP16 fused GPR35 expressed in human U2OS cells assessed as beta arrestin translocation by reporter gene assay; type: cell-based
[7] = target: T1, G-protein coupled receptor 35; test: Antagonist activity at C-terminal beta-galactosidase tagged human recombinant GPR35 expressed in CHO cells after 90 mins by beta-arrestin recruitment assay; type: cell-based
[8] = target: T1, G-protein coupled receptor 35; test: Agonist activity at human GPR35 expressed in HEK293T cells at 5 uM by EYPF-based beta-arrestin-2 luciferase reporter gene assay; type: cell-based, HEK-293T
[9] = target: T1, G-protein coupled receptor 35; test: Binding affinity to human recombinant GPR35 expressed in CHO cells after 150 mins by liquid scintillation counting analysis
[10] = target: T1, G-protein coupled receptor 35; test: Competitive binding affinity to human recombinant GPR35 expressed in CHO cells by scintillation counting analysis in presence of CaCl2; type: cell-based
[11] = target: T1, G-protein coupled receptor 35; test: Competitive binding affinity to human recombinant GPR35 expressed in CHO cells by scintillation counting analysis in presence of MgCl2; type: cell-based
[12] = target: T1, G-protein coupled receptor 35; test: Binding affinity to human recombinant GPR35 expressed in CHO cells by scintillation counting analysis in absence of MgCl2, NaCl, CaCl2; type: cell-based
[13] = target: T1, G-protein coupled receptor 35; details: CHO, 5 nM
[14] = target: T1, G-protein coupled receptor 35; details: CHO, 5 nM; remark: listed apart in the source
[15] = target: T1, G-protein coupled receptor 35; details: CHO, 5 nM; remark: listed apart in the source
[16] = target: T1, G-protein coupled receptor 35; details: CHO, 5 nM; remark: listed apart in the source
[17] = target: T1, G-protein coupled receptor 35; details: CHO, 5 nM; remark: listed apart in the source
[18] = target: T1, G-protein coupled receptor 35; test: Displacement of [3H]PSB-13253 from human recombinant GPR35 exprssed in CHO cells at 10 uM by liquid scintillation counting analysis; type: cell-based
[19] = target: T1, G-protein coupled receptor 35; test: Agonist activity at human GPR35 by Ca+2 release assay
[20] = target: T1, G-protein coupled receptor 35; test: Agonist activity at human GPR35 by DMR assay

T1 sequence (Q9HC97 whole entry): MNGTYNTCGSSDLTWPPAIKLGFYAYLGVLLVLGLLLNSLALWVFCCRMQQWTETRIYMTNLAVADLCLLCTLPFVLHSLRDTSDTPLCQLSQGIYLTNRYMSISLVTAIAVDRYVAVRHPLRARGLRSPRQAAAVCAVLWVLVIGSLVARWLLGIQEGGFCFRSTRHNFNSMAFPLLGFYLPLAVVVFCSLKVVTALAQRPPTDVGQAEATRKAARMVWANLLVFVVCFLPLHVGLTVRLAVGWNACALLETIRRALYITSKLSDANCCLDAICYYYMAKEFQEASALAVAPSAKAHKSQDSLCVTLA

SMILES: COc1ccccc1C(=O)Nc1cc(Br)cc2c(=O)cc(C(=O)O)oc12
- Ki [1]: 331 nM

SMILES: O=C(Nc1cccc2c(=O)cc(C(=O)O)oc12)c1cccc([N+](=O)[O-])c1
- Ki [1]: 4390 nM

SMILES: O=C(Nc1cccc2c(=O)cc(C(=O)O)oc12)c1ccc2ccccc2n1
- Ki [1]: 691 nM

SMILES: COc1ccc(C(=O)Nc2cc(C)cc3c(=O)cc(C(=O)O)oc23)cc1
- Emax [2]: 118%
- EC50 [3]: 37.7 nM
- Ki [1]: 42.8 nM

SMILES: O=C(Nc1cccc2c(=O)cc(C(=O)O)oc12)c1ccc2ccccc2c1
- Ki [1]: 714 nM

SMILES: N#Cc1ccc(C(=O)Nc2cc(Br)cc3c(=O)cc(C(=O)O)oc23)cc1
- Ki [1]: 148 nM

SMILES: Cc1cccc(C(=O)Nc2cc(Br)cc3c(=O)cc(C(=O)O)oc23)c1
- Ki [1]: 128 nM

SMILES: COc1ccc(C(=O)Nc2cc(Br)cc3c(=O)cc(C(=O)O)oc23)cc1F
- Emax [2]: 120%
- EC50 [3]: 4.37 nM
- Ki [1]: 1.64 nM

SMILES: O=C(O)c1cc2ccccc2c(Cc2c(O)c(C(=O)O)cc3ccccc23)c1O
- Emax [2]: 95%

SMILES: O=C(Nc1cc(Br)cc2c(=O)cc(C(=O)O)oc12)c1ccccc1
- Ki [1]: 81.6 nM

SMILES: O=C(O)c1cc(=O)c2cccc(NC(=O)C3CCCCC3)c2o1
- Ki [1]: 3580 nM

SMILES: COc1ccc(C(=O)Nc2cc(F)cc3c(=O)cc(C(=O)O)oc23)cc1
- Ki [1]: 25.4 nM

SMILES: O=C(Nc1cc(Br)cc2c(=O)cc(C(=O)O)oc12)c1ccc(Cl)cc1
- Ki [1]: 4.79 nM

SMILES: O=C(O)c1cc(=O)c2ccccc2[nH]1 [TRANSTORINE]
- EC50 [4]: 39200 nM
- Ki [1]: 137000 nM

SMILES: O=C(Nc1cccc2c(=O)cc(C(=O)O)oc12)c1ccc(Br)cc1
- Ki [1]: 233 nM

SMILES: Cc1ccc(C(=O)Nc2cccc3c(=O)cc(C(=O)O)oc23)cc1
- Ki [1]: 697 nM

SMILES: COc1ccc(C(=O)Nc2cc(Cl)cc3c(=O)cc(C(=O)O)oc23)c(F)c1
- Emax [2]: 111%
- EC50 [3]: 6.06 nM
- Ki [1]: 1.92 nM

SMILES: O=C(Nc1cc(Cl)cc2c(=O)cc(C(=O)O)oc12)c1ccccc1
- Ki [1]: 138 nM

SMILES: COc1ccc(C(=O)Nc2cc(Br)cc3c(=O)cc(C(=O)O)oc23)nc1
- Ki [1]: 56.8 nM

SMILES: O=C(O)c1cc(=O)c2cc(F)cc(NC(=O)c3cccc(Cl)c3Cl)c2o1
- Ki [1]: 119 nM

SMILES: O=C(Nc1cccc2c(=O)cc(C(=O)O)oc12)c1ccc(C(F)(F)F)cc1
- Ki [1]: 10300 nM

SMILES: CCC(=O)Nc1cccc2c(=O)cc(C(=O)O)oc12
- Ki [1]: 6770 nM

SMILES: COC(=O)c1cnn(-c2ccc(F)cc2F)c1/C=N/NC(=S)NC(C)(C)C
- IC50 [5]: 10400 nM
- IC50 [6]: 200 nM
- IC50 [7]: 574 nM
- Ki [1]: 42.2 nM

SMILES: O=C(Nc1cc(Cl)cc2c(=O)cc(C(=O)O)oc12)c1ccc([N+](=O)[O-])cc1
- Ki [1]: 183 nM

SMILES: COc1ccc(C(=O)Nc2cccc3c(=O)cc(C(=O)O)oc23)cc1
- Ki [1]: 221 nM

SMILES: COc1ccc(C(=O)Nc2cc(Br)cc3c(=O)cc(C(=O)O)oc23)cc1OC
- Ki [1]: 228 nM

SMILES: O=C(Nc1cc(Br)cc2c(=O)cc(C(=O)O)oc12)c1ccc2c(c1)OCO2
- Ki [1]: 15 nM

SMILES: O=C(O)COc1ccc(/C=C2\SC(=O)NC2=O)cc1
- EC50 [8]: 1400 nM
- Emax [2]: 107%
- EC50 [3]: 349 nM
- Ki [1]: 50.8 nM

SMILES: CCCOc1ccc(C(=O)Nc2cccc3c(=O)cc(C(=O)O)oc23)cc1
- Ki [1]: 8060 nM

SMILES: CCOc1ccc(C(=O)Nc2cc(Br)cc3c(=O)cc(C(=O)O)oc23)cc1
- Ki [1]: 98.4 nM

SMILES: Cc1cccc(C(=O)Nc2cc(Cl)cc3c(=O)cc(C(=O)O)oc23)c1
- Ki [1]: 250 nM

SMILES: [3H]C([3H])([3H])Oc1ccc(C(=O)Nc2cc(Br)cc3c(=O)cc(C(=O)O)oc23)cc1
- Kd [9]: 5.27 nM
- Kd [10]: 5.92 nM
- Kd [11]: 5.65 nM
- Kd [12]: 115 nM

SMILES: O=C(O)c1cc(=O)c2cc(F)cc(NC(=O)c3ccc(Cl)cc3Cl)c2o1
- Ki [1]: 4.12 nM

SMILES: NS(=O)(=O)c1cc(C(=O)O)c(NCc2ccco2)cc1Cl
- Emax [2]: 96%

SMILES: CC1=C(C#N)C(=C(C#N)C#N)OC1(C)c1ccc(Cl)c(Cl)c1 (stereo unspecified)
- Ki [1]: 655 nM

SMILES: Cc1cccc(C(=O)Nc2cccc3c(=O)cc(C(=O)O)oc23)c1
- Ki [1]: 4780 nM

SMILES: CCOC(=O)c1cc(=O)c2cc(F)cc(NC(=O)c3ccc(OC)cc3)c2o1
- Ki [1]: 198 nM

SMILES: COc1ccc(C(=O)Nc2cc(Br)cc3c(=O)cc(C(=O)O)oc23)c(Cl)c1
- Ki [1]: 1.12 nM

SMILES: COc1cc(F)c(C(=O)Nc2cc(Br)cc3c(=O)cc(C(=O)O)oc23)c(F)c1
- Emax [2]: 119%
- EC50 [3]: 5.54 nM
- Ki [1]: 0.589 nM

SMILES: O=C(Nc1cccc2c(=O)cc(C(=O)O)oc12)c1ccccc1
- Ki [1]: 3290 nM

SMILES: CC(=O)Nc1cccc2c(=O)cc(C(=O)O)oc12
- Ki [1]: 18500 nM

SMILES: O=C(Nc1cccc2c(=O)cc(C(=O)O)oc12)c1ccc(OCC2CC2)cc1
- Ki [1]: 3710 nM

SMILES: O=c1oc2ccccc2c(O)c1Cc1c(O)c2ccccc2oc1=O [DICUMAROL]
- EC50 [8]: 1300 nM
- Emax [2]: 107%
- EC50 [3]: 9780 nM
- Ki [1]: 39 nM

SMILES: O=C(O)c1cc(=O)c2cccc([N+](=O)[O-])c2o1
- Ki [1]: 13600 nM

SMILES: O=C(O)c1cc(=O)c2cc(Br)cc(NC(=O)c3ccc(Cl)cc3Cl)c2o1
- Ki [1]: 0.938 nM

SMILES: O=C(Cc1ccccc1)Nc1cccc2c(=O)cc(C(=O)O)oc12
- Ki [1]: 2720 nM

SMILES: COc1ccc(C(=O)Nc2cc(Br)cc3c(=O)cc(C(=O)O)oc23)cc1
- Ki [1]: 5.18 nM
- inhibition [13]: 85%
- inhibition [14]: 90%
- inhibition [15]: 65%
- T1/2 [16]: 7.8 min
- T1/2 [17]: 9.91 min

SMILES: COc1ccc(C(=O)Nc2cc(OC)cc3c(=O)cc(C(=O)O)oc23)cc1
- Emax [2]: 124%
- EC50 [3]: 25.5 nM
- Ki [1]: 20.5 nM

SMILES: COc1ccc(C(=O)Nc2cc(Br)cc3c(=O)cc(C(=O)O)oc23)c(F)c1
- Emax [2]: 120%
- EC50 [3]: 4.45 nM
- Ki [1]: 1.37 nM

SMILES: COC(=O)CC(=O)Nc1cccc2c(=O)cc(C(=O)O)oc12
- Ki [1]: 18600 nM

SMILES: Nc1cc(Br)cc2c(=O)cc(C(=O)O)oc12
- Ki [1]: 3010 nM

SMILES: Nc1cccc2c(=O)cc(C(=O)O)oc12
- inhibition [18]: 7%

SMILES: O=C(Nc1cc(F)cc2c(=O)cc(C(=O)O)oc12)c1ccc(Cl)c(Cl)c1
- Ki [1]: 11.5 nM

SMILES: O=C(Nc1cc(Br)cc2c(=O)cc(C(=O)O)oc12)c1ccc(Cl)c(Cl)c1
- EC50 [3]: 25.1 nM
- Ki [1]: 2.18 nM

SMILES: COc1ccc(C(=O)Nc2cc(Cl)cc3c(=O)cc(C(=O)O)oc23)cc1
- Ki [1]: 5.5 nM

SMILES: COc1ccc(C(=O)Nc2cc(Br)cc3c(=O)cc(C(=O)O)oc23)cn1
- Ki [1]: 25.7 nM

SMILES: O=C(O)c1cc(=O)c2c(OCC(O)COc3cccc4oc(C(=O)O)cc(=O)c34)cccc2o1 [CROMOLYN]
- EC50 [19]: 210 nM
- EC50 [20]: 520 nM
- Emax [2]: 119%
- Ki [1]: 2340 nM
